Test results: US20230090255A1, “MAGL INHIBITOR, PREPARATION METHOD THEREFOR AND USE THEREOF” (LUNAN PHARMACEUTICAL GROUP CORPORATION, priority 2019, published 2023)

Experiments:
[1] = target: T1, recombinant human protein MAGL (Homo sapiens, UniProt Q99685); assay: MAGL enzyme analysis (Cayman MAGL inhibitor screening kit); type: biochemical; settings: 4-nitrophenylacetic acid substrate, absorbance 410 nm, read-out: MAGLXIC50
T1 construct: purchased Cayman
T1 sequence (Q99685 1-303): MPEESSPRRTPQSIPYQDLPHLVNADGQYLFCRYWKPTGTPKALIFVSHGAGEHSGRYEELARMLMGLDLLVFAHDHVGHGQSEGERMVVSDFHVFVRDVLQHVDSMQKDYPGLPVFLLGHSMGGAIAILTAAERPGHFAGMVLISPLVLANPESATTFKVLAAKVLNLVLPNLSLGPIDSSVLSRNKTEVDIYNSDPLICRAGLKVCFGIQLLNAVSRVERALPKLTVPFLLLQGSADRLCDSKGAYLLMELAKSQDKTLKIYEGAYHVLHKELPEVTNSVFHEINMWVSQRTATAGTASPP
Procedure: 150 µL 1Xassay buffer, 10 µL recombinant human protein MAGL and 10 µL different concentrations of MAGL inhibitors (six points within 1 nM to 1000 nM) were added to per well of a 96-well plate. JZL195 (a positive control inhibitor) served as a positive control well, after incubation for 5 min at room temperature, per well was added with 10 µL MAGL substrate, and […] were vibrated for 10 s and placed for 10 min at room temperature, then an absorbance was detected at 410 nm. […] Graphad Prism 5.0 was taken to calculate IC50 curves fitting each inhibitor.

[2] = Tissue distribution test in mice; type: in vivo; set-up: content in the brain (tissue distribution): unit not given here; settings: 16 mg/kg subcutaneous injection
[3] = tested on: reserpine-induced mice depression; assay: Reserpine-induced mice depression; type: in vivo, ICR mouse; set-up: Awakening / Finger contact / Head touch / Fear / Autonomic activity / Eyelid closure / Upright: scale not given here; settings: for Autonomic activity / Awakening / Eyelid closure / Fear / Finger contact / Head touch / Upright: 2 h after reserpine 4 mg/kg
Procedure: • Species: ICR mouse • Microbiological level: SPF • Quantity and sex of the animals purchased: male: 75; female: 75 • Quantity and sex of the animals used: male: 75; female: 75 • Body weight: 13-18 g when accepted
Group design: there were 50 pieces for each batch of animals and 3 batches in total; each batch of animals were randomly divided into 5 groups; low, middle and high-dose groups of the samples for test, blank control group and model group; a sample for test was tested per batch.
3.1 Animals were administrated via subcutaneous injection per day with doses of 4, 8 and 16 mg/kg for 6 d in total. 2 h later after the final administration, each animal was subcutaneously injected with 4 mg/kg reserpine except the blank control group; afterwards, indicators, such as, awakening, finger contact, fear, head touch, autonomic activity, upright and eyelid closure were determined 2 h later.
Data statistics and analysis were completed via a computer by SPSS 17.0 software and office 2016, and data statistics was inspected by Kruskal-Wallis. If the Kruskal-Wallis inspection result is significant ((P<0.05), multiple comparison inspection is further performed by a Mann-Whitney U nonparametric test method.

ulcerative colitis mice = assay: Mice ulcerative colitis (DSS); type: in vivo, BALB/c mice; settings: DSS mice, 100 mg/kg ig
From the text: Healthy male SPF-level BALB/c mice (8-week old and body mass: (20±2) g).
Modeling: the mice were randomly divided into […] at the end of the quarantine, 10 pieces for each group. The mice in the normal group drank normal water freely, and the rest groups of mice drank 1.0%-1.5% DSS solution freely for modeling, 7 d later after modeling, the mice in the modeling group drank normal water freely for 7 d, and 14 d served as a modeling period for four continuous periods, and the mice in the modeling group were administered at the same time.
End point of the experiment: experimental administration was performed for four periods, and dissection was performed on the 3rd and 4th day of the recovery period of the 4th period.
Test indicators: the mice were weighed twice a week after the beginning of the administration; diarrhea and hematochezia of the mice were observed, and times of hematochezia were recorded.
At the end of the experiment, the mice were dissected and weighed, and narcotized to take blood, then serum was preserved at -80° C. Spleen was taken and weighed to calculate the spleen index. The content of IL-1β in serum was detected via ELISA. Colorectum was cut and taken to measure the length of colorectum, then immobilized by formaldehyde and dyed by HE to detect the pathological change.

[4] = tested on: mice pain response induced by hot plate; assay: Mice pain response induced by hot plate; type: in vivo, ICR mice; settings: hot plate 55°C, positive control 10 mg/kg ig 7 d
Procedure: Female ICR mice (20±2) g were placed on an intelligent hot plate at 55±0.5° C., and latency (s) that the plantar of mice touched the hot plate until the occurrence of a hind paws licking response served as a pain threshold indicator; the mice (response latency <5 s or >30 s) or jumping mice were eliminated.
Grouping and administration were the same as those in Example 40.
The mice were continuously administered intragastrically for 7 consecutive days; the pain threshold of each group of mice was respectively determined once at 30, 60, 90 and 120 min after the final administration; the pain threshold greater than 60 s was calculated by 60 s.

[5] = tested on: mice writhing caused by acetic acid; assay: Mice writhing caused by acetic acid; settings: positive control 10 mg/kg ig
[6] = tested on: mice with inflammatory pain; assay: Pain threshold of mice with inflammatory pain (complete Freund's adjuvant); type: in vivo, SD mice; settings: complete Freund's adjuvant paw model, positive control 10 mg/kg ig once per day
Procedure: […] (180±20) g were injected with a complete Freund’s adjuvant (50 µL/piece) at the right rear plantar of mice, and mice in the control group were injected with the corresponding volume of 0.5% sodium carboxymethylcellulose to establish a paw edema inflammatory pain model. After modeling, the mice were administered for 7 d continuously, and administered intragastrically once per day. Pain thresholds (s) of the mice were respectively determined on the 1st, 3rd and 7th day before administration and after modeling at different periods of time.
Grouping and administration were the same as those of Example 40.

[7] = tested on: reserpine-induced mice migraine; assay: Reserpine-induced mice migraine; type: in vivo, ICR mice
Procedure: The mice in the blank control group and model group were administered intragastrically via a solvent from the 5th day after modeling, and the rest groups of mice were respectively administered corresponding medicaments and doses for intragastric administration for 10 consecutive days; 1 h later after the final administration, the mice were weighed; blood was taken at inner canthus to detect blood coagulation time; whole blood was taken, and cerebrum was taken on an ice and preserved at -20° C. for the subsequent experiment.
Behavioral test: tail suspension activity was performed; the position 1 cm away from the tail of the mice was glued by an adhesive tape on the 9th day of the test, and the adhesive tape was penetrated by a steel needle, and hung in a dark box such that the mice were hung upside down; then the mice struggling times (total number of overturning from hanging) within 2 min were observed.
The mice were weighed 1 h later after the final administration; blood of inner canthus was taken via a capillary to detect the blood coagulation time.
Blood was taken to detect the content of 5-HT in serum via high-performance liquid chromatography. Cerebrum was taken on an ice and precooled and cleaned slightly with 0.5% sodium carboxymethylcellulose, and then sucked dry with a filter paper, and placed into a cryogenic tube, and preserved at -20° C. for further use, then the content of 5-HT in brain tissues was detected by high performance liquid chromatography.
5-HT test method: a sample was precipitated with 10% perchloric acid solution according to 1:1, and then centrifuged to take supernatant for test. Chromatographic conditions: the chromatographic column is a SHIMADZU VP-ODS C18 column (250*4.6 mm, 5 um), the mobile phase is a methanol-0.01 mol/L potassium acetate buffer solution (10:90, V/V, PH is adjusted to 4.00 with 0.2 mol/L citric acid) for gradient elution; the column temperature is 25° C., flow rate is 1.00 ml/min and test wavelength is 275 nm.

## O=C(Nc1ccccc1)C1CCN(C(=O)c2ccc(Oc3ccccc3)cc2)CC1 [MAGLZ-II-01]
[1]
  IC50: 45 nM
[2]; 1.0 h
  content in the brain (tissue distribution): 0
[2]; 2.0 h
  content in the brain (tissue distribution): 0.6
[2]; 5.0 h
  content in the brain (tissue distribution): 0.9

## Cc1cc(C)cc(NC(=O)C2CCN(C(=O)c3ccc(Oc4ccccc4)cc3)CC2)c1 [MAGLZ-II-02]
[1]
  IC50: 27 nM
[2]; 1.0 h
  content in the brain (tissue distribution): 0
[2]; 2.0 h
  content in the brain (tissue distribution): 1.2
[2]; 5.0 h
  content in the brain (tissue distribution): 3.7

## COc1cccc(NC(=O)C2CCN(C(=O)c3ccc(Oc4ccccc4)cc3)CC2)c1 [MAGLZ-II-03]
[1]
  IC50: 749 nM

## CCCC(=O)Oc1cccc(C(=O)N2CCC(C(=O)Nc3cccc(Cl)c3)CC2)c1 [MAGLZ-II-11F]
[1]
  IC50: 126 nM

## N[C@H](Cc1ccc(O)cc1)C(=O)Oc1cccc(C(=O)N2CCC(C(=O)Nc3cccc(Cl)c3)CC2)c1 [MAGLZ-II-11J]
[1]
  IC50: 1600 nM

## COc1cccc(C(=O)N2CCC(C(=O)Nc3cccc(Cl)c3)CC2)c1 [MAGLZ-II-14]
[1]
  IC50: 333 nM

## O=C(Nc1cccc(Cl)c1)C1CCN(C(=O)c2ccc(Oc3ccccc3)cc2)CC1 [MAGLZ-II-16]
[2]
  content in the brain, ranking of the test substances: highest
[2]; 1.0 h
  content in the brain (tissue distribution): 0
[2]; 2.0 h
  content in the brain (tissue distribution): 32.8
[2]; 5.0 h
  content in the brain (tissue distribution): 16.9
[3]; 4, 8 and 16 mg/kg sc 6 d
  effect on reserpine-induced depression (conclusion): has a certain effect
[3]; high dose 16 mg/kg sc 6 d
  Autonomic activity: 0.6±0.6
  Awakening: 2±0
  Eyelid closure: 0±0
  Fear: 0±0
  Finger contact: 1.6±0.8
  Head touch: 0.8±0.98
  Upright: 0.4±1.2
[3]; low dose 4 mg/kg sc 6 d
  Autonomic activity: 0±0
  Awakening: 2±0
  Eyelid closure: 0±0
  Fear: 0±0
  Finger contact: 1.4±0.92
  Head touch: 0.4±0.8
  Upright: 0±0
[3]; middle dose 8 mg/kg sc 6 d
  Autonomic activity: 0.2±0.6
  Awakening: 1.8±0.6
  Eyelid closure: 0±0
  Fear: 0±0
  Finger contact: 1.2±0.98
  Head touch: 0.8±0.98
  Upright: 0±0

## O=C(Nc1ccc(Cl)c(Cl)c1)C1CCN(C(=O)c2ccc3ccccc3c2)CC1 [MAGLZ-II-24]
[1]
  IC50: 275 nM

## O=C(Nc1cc(Cl)cc(Cl)c1)C1CCN(C(=O)c2ccc3ccccc3c2)CC1 [MAGLZ-II-25]
[1]
  IC50: 139 nM

## O=C(Nc1cccc(Cl)c1)C1CCN(C(=O)c2ccc3cc(O)ccc3c2)CC1 [MAGLZ-II-29]
[1]
  IC50: 252 nM

## O=C(c1cccc(O)c1)N1CCC(c2nc3cc(Cl)ccc3o2)CC1 [MAGLZ-II-30]
[1]
  IC50: 11 nM

## Nc1ccc(O)c(C(=O)O)c1 [Mesalazine, reference compound]
Ulcerative colitis mice
  Total times of hematochezia within the four periods: 32.80±4.96
Ulcerative colitis mice; four periods
  Colon length: 6.66±0.68 cm
Ulcerative colitis mice; serum, ELISA
  IL-1 content: 48.33 ± 6.49 pg/mL

## O=C(O)Cc1ccccc1Nc1c(Cl)cccc1Cl [Positive medicament, diclofenac sodium, reference compound]
[4]; 30 min after final administration
  Pain threshold: 22.32 ± 6.76 s
[4]; 60 min
  Pain threshold: 24.34 ± 8.19 s
[4]; 90 min
  Pain threshold: 22.64 ± 6.48 s
[4]; 120 min
  Pain threshold: 22.52 ± 6.91 s
[5]; 1 h before 0.7% acetic acid ip, within 20 min
  Writhing times: 24.5±12.9
[5]; time to first writhing
  Latent time: 358.5 ± 172.7 s
[5]; writhing inhibition
  Inhibition ratio: 37.7%
[6]; 0 d
  Pain threshold: 12.71 ± 2.55 s
[6]; 1 d
  Pain threshold: 6.38±0.91^∗ s
[6]; 3 d
  Pain threshold: 8.05±1.23^∗ s
[6]; 7 d
  Pain threshold: 9.00±0.911^∗ s

## CN(C)CCc1c[nH]c2ccc(C[C@H]3COC(=O)N3)cc12 [Zolmitriptan, reference compound]
[7]; reserpine 0.2 mg/kg sc mice, 0.5 mg/kg ig 10 d, 1 h after final administration
  Blood coagulation time: 185.12±38.86 S
[7]; reserpine mice, 0.5 mg/kg ig 10 d
  brain tissue 5-HT: 1.93 ± 0.37 nmol/g
[7]; reserpine mice, 0.5 mg/kg ig, 9th day
  Times of tail suspension (struggling times within 2 min): 18.13 ± 3.94
